Test system: SEM cells
Assay: cell viability relative to DMSO control; higher = less cytotoxic
Conditions: 48 h
How it was run: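 Leukemia cells (NOMO1 or SEM, 500 cells/well; P12-Ichikawa, 1000 cells/well) were seeded in 5 μl in 1536-well plates after at least four passages of adaptation to each medium. They received library compounds in DMSO by pin dosing, 11 threefold points from 47 μM to 0.79 nM. Luminescence with CellTiter-Glo One was read after 48 h at 37°C. Viability is stated per plate relative to DMSO wells, with cell-free wells as background.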

[1] = HPLM + 10% dialyzed FBS, 0.000781 µM
[2] = HPLM + 10% dialyzed FBS, 0.00234 µM
[3] = HPLM + 10% dialyzed FBS, 0.00702 µM
[4] = HPLM + 10% dialyzed FBS, 0.0211 µM
[5] = HPLM + 10% dialyzed FBS, 0.0632 µM
[6] = HPLM + 10% dialyzed FBS, 0.19 µM
[7] = HPLM + 10% dialyzed FBS, 0.569 µM
[8] = HPLM + 10% dialyzed FBS, 1.71 µM
[9] = HPLM + 10% dialyzed FBS, 5.12 µM
[10] = HPLM + 10% dialyzed FBS, 15.4 µM
[11] = HPLM + 10% dialyzed FBS, 46.1 µM
[12] = RPMI 5 mM glucose + 10% FBS, 0.000781 µM
[13] = RPMI 5 mM glucose + 10% FBS, 0.00234 µM
[14] = RPMI 5 mM glucose + 10% FBS, 0.00702 µM
[15] = RPMI 5 mM glucose + 10% FBS, 0.0211 µM
[16] = RPMI 5 mM glucose + 10% FBS, 0.0632 µM
[17] = RPMI 5 mM glucose + 10% FBS, 0.19 µM
[18] = RPMI 5 mM glucose + 10% FBS, 0.569 µM
[19] = RPMI 5 mM glucose + 10% FBS, 1.71 µM
[20] = RPMI 5 mM glucose + 10% FBS, 5.12 µM
[21] = RPMI 5 mM glucose + 10% FBS, 15.4 µM
[22] = RPMI 5 mM glucose + 10% FBS, 46.1 µM
[23] = RPMI 5 mM glucose + 10% dialyzed FBS, 0.000781 µM
[24] = RPMI 5 mM glucose + 10% dialyzed FBS, 0.00234 µM
[25] = RPMI 5 mM glucose + 10% dialyzed FBS, 0.00702 µM
[26] = RPMI 5 mM glucose + 10% dialyzed FBS, 0.0211 µM
[27] = RPMI 5 mM glucose + 10% dialyzed FBS, 0.0632 µM
[28] = RPMI 5 mM glucose + 10% dialyzed FBS, 0.19 µM
[29] = RPMI 5 mM glucose + 10% dialyzed FBS, 0.569 µM
[30] = RPMI 5 mM glucose + 10% dialyzed FBS, 1.71 µM
[31] = RPMI 5 mM glucose + 10% dialyzed FBS, 5.12 µM
[32] = RPMI 5 mM glucose + 10% dialyzed FBS, 15.4 µM
[33] = RPMI 5 mM glucose + 10% dialyzed FBS, 46.1 µM

| SMILES | cell viability [1] [%] | cell viability [2] [%] | cell viability [3] [%] | cell viability [4] [%] | cell viability [5] [%] | cell viability [6] [%] | cell viability [7] [%] | cell viability [8] [%] | cell viability [9] [%] | cell viability [10] [%] | cell viability [11] [%] | cell viability [12] [%] | cell viability [13] [%] | cell viability [14] [%] | cell viability [15] [%] | cell viability [16] [%] | cell viability [17] [%] | cell viability [18] [%] | cell viability [19] [%] | cell viability [20] [%] | cell viability [21] [%] | cell viability [22] [%] | cell viability [23] [%] | cell viability [24] [%] | cell viability [25] [%] | cell viability [26] [%] | cell viability [27] [%] | cell viability [28] [%] | cell viability [29] [%] | cell viability [30] [%] | cell viability [31] [%] | cell viability [32] [%] | cell viability [33] [%] |
| --- | --- | --- | --- | --- | --- | --- | --- | --- | --- | --- | --- | --- | --- | --- | --- | --- | --- | --- | --- | --- | --- | --- | --- | --- | --- | --- | --- | --- | --- | --- | --- | --- | --- |
| CN(C)CCOc1ccc(/C(=C(/CCCl)c2ccccc2)c2ccccc2)cc1 | 54.7 | 92.8 | 85.2 | 94.2 | 108 | 85.6 | 88 | 94.6 | 58.5 | 34 | 16.5 | 54.5 | 100 | 74.7 | 96.7 | 98.4 | 99.5 | 100 | 74.8 | 39.5 | 22.1 | 11.9 | 45.9 | 96.8 | 83.6 | 102 | 117 | 97.5 | 85.8 | 85.2 | 57.6 | 36.1 | 22.6 |
| C[C@H](NCc1ccc(OCc2cccc(F)c2)cc1)C(N)=O | 81 | 102 | 102 | 107 | 97.6 | 76.7 | 58 | 42.3 | 29.6 | 30.7 | 9.65 | 102 | 99.9 | 106 | 100 | 106 | 92.1 | 60.1 | 44.1 | 26 | 22.1 | 10.9 | 78.5 | 99.8 | 102 | 85.1 | 102 | 67.1 | 47.6 | 27.9 | 21 | 20.6 | 13.2 |
| CC(C)CC(N(C)C)C1(c2ccc(Cl)cc2)CCC1 (configuration not stated) | 114 | 119 | 117 | 133 | 124 | 117 | 126 | 110 | 90.4 | 54.3 | 59.1 | 111 | 127 | 118 | 116 | 121 | 128 | 121 | 105 | 75 | 40.2 | 46.7 | – | – | – | – | – | – | – | – | – | – | – |
| Cc1cccc(-c2[nH]c(C(C)(C)C)nc2-c2ccc3c(c2)OCO3)n1 | 103 | 98.7 | 114 | 105 | 104 | 120 | 113 | 121 | 109 | 10.8 | 7.86 | – | – | – | – | – | – | – | – | – | – | – | 92.1 | 96.8 | 100 | 93 | 120 | 99.7 | 107 | 121 | 111 | 10.4 | 4.24 |
| N=C(N)Nc1ccc(C(=O)Oc2ccc3cc(C(=N)N)ccc3c2)cc1 | 95.5 | 87.7 | 87.7 | 92.8 | 96.7 | 25.8 | 102 | 105 | 95.4 | 99.4 | 79.2 | 91.5 | 87.6 | 85.5 | 83.1 | 86.1 | 21.5 | 88.7 | 93.6 | 88.8 | 93.4 | 84 | 112 | 90.4 | 87.3 | 113 | 91.7 | 29.6 | 99.6 | 110 | 92.3 | 110 | 80.4 |
| Cc1ccc([S+](=O)([O-])Nc2cc(Cl)ccc2C(=O)Nc2nc(-c3ccccc3)cs2)cc1 | 116 | 111 | 110 | 117 | 121 | 115 | 24.8 | 133 | 119 | 120 | 55.3 | 127 | 123 | 109 | 126 | 124 | 119 | 32.1 | 124 | 121 | 120 | 58.5 | 121 | 110 | 99.1 | 108 | 110 | 120 | 31.8 | 119 | 126 | 118 | 32.3 |
| COC(=O)Nc1nc2ccc([S+]([O-])c3ccccc3)cc2[nH]1 (configuration not stated) | 77.9 | 97.3 | 96.5 | 100 | 99.5 | 94.5 | 87.9 | 94.4 | 84 | 59.3 | 57.7 | 113 | 114 | 109 | 104 | 116 | 111 | 107 | 121 | 89.6 | 67.7 | 63 | 106 | 112 | 113 | 111 | 124 | 122 | 105 | 122 | 102 | 59.6 | 69.4 |
| C[N+]1(C)[C@@H]2CC(OC(=O)C(O)(c3cccs3)c3cccs3)C[C@H]1[C@@H]1O[C@@H]12 (some centres not stated) | 94.8 | 95.5 | 107 | 102 | 113 | 103 | 103 | 114 | 106 | 113 | 108 | 85.4 | 104 | 92.6 | 83 | 110 | 96.3 | 99.3 | 103 | 99.3 | 114 | 92.1 | 90.9 | 98 | 105 | 113 | 119 | 119 | 111 | 139 | 108 | 121 | 101 |

From the supplement of paper PMC11451515
